Results published in patent US20060078594A1, “Iron complex” (Conopco, Inc., d/b/a UNILEVER, priority 2004, published 2006).

Assay: Iron dialysability assay (in vitro dialysable iron from fortified dough)
Conditions: dough from whole-grain wheat flour fortified with 50 mg/kg iron; normalized to dough fortified with ferrous sulfate; means of 4-5 experiments; ** = significantly different from ferrous sulfate (p < 0.05)
Procedure: The crude mass was aliquoted and small lumps were formed (10 g±0.5 g) which were used for the iron dialysability assay.
All glassware and paddles were cleaned with 10% HNO3 (24 hours) and rinsed five times with Milli-Q® water. […] The resulting suspension was poured into a VanKel Vial and the blender beaker was rinsed twice with Milli-Q® water (20 mL) and the rinse water was added to the suspension. The stirring speed of the paddle was adjusted to 200 rpm at 37° C. […] The pH of the suspension was adjusted to 2.0 with 6N HCl and a Pepsin-HCl solution (5 mL) was added. […] A clean dialysis membrane (20 cm, Spectra/Por7, Molecular weight cut-off 8 kD) was filled with a determined amount of 0.1M NaCO3 solution and adjusted to a total volume of 25 mL with Milli-Q® water. The dialysis bag was placed in the Erlenmeyer flask containing aliquot (iii), and shaken at 37° C. at 100 beats/min for 30 minutes while the pH was being monitored. […] After that time, the contents of the dialysis bag were recovered for quantitative analysis of the iron content.
Total iron content of yeast and wheat flour was determined by inductively coupled plasma atomic emission spectrometry. […] The emission of the individual elements was measured at specific wavelengths and concentrations were quantified from standard solutions. […]

Molecule O=S(=O)([O-])[O-].[Fe+2] [Iron sulphate] has a Relative availability of 1.0.
